{
  "source": "patent US20190183890A1",
  "about": "“METHODS AND COMPOSITIONS FOR PROMOTING HAIR GROWTH” (Rophe Pharma, Inc., priority 2016, published 2019)",
  "key": {"androgenic alopecia [1]": {"test_system": "androgenic alopecia", "conditions": "topical"}, "androgenic alopecia [2]": {"test_system": "androgenic alopecia"}},
  "data": [
    {"smiles": "Cl.NNc1nncc2ccccc12", "note": "[hydralazine, 1-hydrazinophthalazine monohydrochloride]", "values": [
      {"measurement": "hair regrowth", "setting": "androgenic alopecia [1]; 0.2% solution in glycol, alcohol and water, over 200 patients, mostly androgenic alopecia", "result": "hair grew back"},
      {"measurement": "time until hair growth visible", "setting": "androgenic alopecia [1]; 0.2% solution, treatment has to be continued every month to sustain the hair", "result": "visible after the first month"},
      {"measurement": "men with visible enhancement in hair count and hair thickness", "setting": "androgenic alopecia [2]; 12 men aged 33-69 years, 150, then 300, then 600 mg/100 ml, after 6-8 weeks of treatment", "result": "11 out of the 12"},
      {"measurement": "treatment time to visible enhancement in hair count and hair thickness", "setting": "androgenic alopecia [2]; 12 men, 150 to 600 mg/100 ml", "result": "6-8 weeks"},
      {"measurement": "onset of effect compared with Rogaine", "setting": "androgenic alopecia [2]; 12 men, visible enhancement after 6-8 weeks", "result": "much faster onset of effect than Rogaine"}
    ]}
  ]
}
